# “And” between values parts separate entries of the source, which are not always exact repeats. Identical values can stand only once.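 Where inhibition never reached the appropriate level, the endpoint shown equals the highest concentration tested. Otherwise, values were interpolated linearly from a five-concentration, 48-hour dose response in 96-well plates. Abbreviation: GI50, concentration required for 50% inhibition of growth. TGI is the concentration that stops growth completely.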
# Key:
# Assay in all cases: DTP human tumour cell line panel, 48 h
# [1] = test system: U251 CNS
# [2] = test system: HL-60(TB) leukemia
# [3] = test system: NCI-H460 lung
# [4] = test system: NCI/ADR-RES ovarian
# [5] = test system: TK-10 renal
# [6] = test system: A549 NSCLC
# [7] = test system: OVCAR-5 ovarian
# [8] = test system: SK-MEL-5 melanoma
# [9] = test system: DMS 114 small cell lung
# [10] = test system: DMS 273 small cell lung
# [11] = test system: LXFL 529 NSCLC
SMILES,GI50 [1],TGI [1],GI50 [2],TGI [2],GI50 [3],TGI [3],GI50 [4],TGI [4],TGI [5],GI50 [6],TGI [6],TGI [7],TGI [8],GI50 [5],GI50 [7],GI50 [8],TGI [9],TGI [10],GI50 [11],TGI [11]
COc1cc(/C=C/c2ccnc3ccccc23)cc(OC)c1OC,3.01 µM,44.1 µM and 22.8 µM,2.56 µM,1.58 µM and 7.97 µM,2.94 µM,15.8 µM and 15 µM,1.25 µM,9.32 µM and 4.98 µM,30.6 µM and > 100 µM,3.39 µM,31.1 µM and > 100 µM,95 µM and > 100 µM,10.5 µM and 11.5 µM,,,,,,,
C/C=C(\C)C(=O)O[C@@H]1C=CC(=O)O[C@H]1CNC(=O)[C@H](C)O,20.5 µM,54.7 µM,8.67 µM,32.3 µM,22.2 µM,67.9 µM,34.6 µM,> 100 µM,43.2 µM,30.5 µM,> 88.4 µM,> 73.2 µM,38.8 µM,18.9 µM,32 µM,19.6 µM,,,,
Cn1cc(-c2nc(-c3cn(C)c4ncccc34)cs2)c2ccccc21,1.53 µM,11.4 µM,1.92 µM,> 100 µM,0.858 µM,15.9 µM,0.62 µM,> 100 µM,11.6 µM,1.43 µM,> 100 µM,45.1 µM,3.06 µM,2.4 µM,4.92 µM,0.842 µM,,,,
CCC(=C(c1ccc(OCCN2CCCC2)cc1)c1ccc(OCCN2CCCC2)cc1)c1ccc(Cl)cc1,0.576 µM,1.14 µM,0.606 µM,1.27 µM,0.624 µM,1.18 µM,0.599 µM,1.15 µM,1.33 µM,0.594 µM,1.21 µM,1.11 µM,1.07 µM,0.628 µM,0.568 µM,0.6 µM,,,,
O=C(O)c1[nH]c2c([N+](=O)[O-])cc([N+](=O)[O-])cc2c1C(=O)O,,> 100 µM,,> 100 µM,,> 100 µM,,> 100 µM,> 100 µM,,> 100 µM,> 100 µM,> 100 µM,,,,,,,
Cc1cn2c(/C=C3\C(=O)N(C)c4ccc(Cl)cc43)c(C)nc2s1,3.27 µM,12.3 µM,3.36 µM,> 100 µM,2.86 µM,15.3 µM,1.9 µM,5.66 µM,73 µM,6.88 µM,32.9 µM,12.2 µM,19.5 µM,9.65 µM,3.16 µM,1.34 µM,,,,
COc1ccc(-c2nnc(Nc3nc(O)c(C4=c5cc(Br)ccc5=NC4=O)s3)o2)cc1,15.4 µM,30.7 µM,0.633 µM,9.89 µM,22.6 µM,> 100 µM,22.5 µM,> 71.8 µM,51 µM,26.8 µM,> 100 µM,80.3 µM,> 59.5 µM,18.9 µM,26.7 µM,18.3 µM,,,,
CCN(CC)CCCC(C)Nc1ccnc(/C=C/c2ccc(Cl)cc2)c1 (stereo not given),,3.12 µM,,> 100 µM,,7.49 µM,,15.3 µM,4.8 µM,,4.79 µM,8.04 µM,6.17 µM,,,,,,,
CN(C)CCNC(=O)c1cccc2c1nc(-c1ccncc1)c1ccccc12,,17 µM,,> 100 µM,,3.05 µM,,,7.77 µM,,12.6 µM,23.7 µM,6.8 µM,,,,14.2 µM,12.3 µM,,
CC(=O)c1ccc(Oc2c3ccccc3nc3occc23)cc1,4.21 µM,> 100 µM,8.43 µM,> 100 µM,23.3 µM,> 100 µM,2.52 µM,9.81 µM,> 100 µM,61.9 µM,> 100 µM,> 100 µM,> 100 µM,11.4 µM,27.3 µM,8.75 µM,,,,
CC(=O)[CH-]C(=O)c1ccccc1.CC(=O)[CH-]C(=O)c1ccccc1.CC(=O)[CH-]C(=O)c1ccccc1.[Br-].[Zr+4],67.7 µM,> 100 µM,52.7 µM,> 100 µM,78.3 µM,> 100 µM,,,> 100 µM,> 100 µM,> 100 µM,> 100 µM,> 100 µM,> 100 µM,29.8 µM,> 100 µM,,,70.7 µM,> 100 µM
O=C(COc1cccc(/C=C2\Oc3ccc4ccccc4c3C2=O)c1)c1ccc([N+](=O)[O-])cc1,14.7 µM,27.8 µM,62.7 µM,> 100 µM,37 µM,> 100 µM,> 100 µM,> 100 µM,> 100 µM,> 100 µM,> 100 µM,> 100 µM,34.8 µM,37.3 µM,27.3 µM,13 µM,,,,
C=CCC1C(=O)CC2(C)C(CC=C)C(=O)CC12C (stereo not given),,> 100 µM,,> 100 µM,,> 100 µM,,,> 100 µM,,> 100 µM,> 100 µM,> 100 µM,,,,,> 100 µM,,> 100 µM
CCCCC[C@H]1C/C=C2/C(=O)C(Cl)=C[C@@H]2C/C=C\CCCC(=O)O1,0.33 µM,0.737 µM,0.565 µM,2.72 µM,0.629 µM,1.91 µM,0.317 µM,1.64 µM,1.17 µM,0.625 µM,1.87 µM,1.4 µM,0.812 µM,0.612 µM,0.649 µM,0.437 µM,,,,
COc1ccc(NC(=O)c2cccc(C3CCc4c(cc(OC)c(OC)c4OC)O3)c2)cc1 (stereo not given),3.4 µM,> 100 µM,1.25 µM,> 100 µM,3.33 µM,> 100 µM,2.81 µM,> 100 µM,> 100 µM,3.57 µM,> 100 µM,> 100 µM,3.89 µM,3.75 µM,6.46 µM,1.67 µM,,,,
OCC1OC(n2cnc3c(NCc4ccccc4O)ncnc32)C(O)C1O (stereo not given),1.16 µM,> 100 µM,0.228 µM,0.92 µM,8.57 µM,46.3 µM,0.435 µM,24.4 µM,> 52.6 µM,26.5 µM,> 100 µM,> 67.1 µM,15.3 µM,0.322 µM,1.15 µM,1.84 µM,,,,
CC(C)(C)OC(=O)N1Cc2cc3ccccc3nc2C1CO (stereo not given),> 100 µM,> 100 µM,> 100 µM,> 100 µM,> 100 µM,> 100 µM,> 100 µM,> 100 µM,> 100 µM,> 100 µM,> 100 µM,> 100 µM,> 100 µM,> 100 µM,> 100 µM,> 100 µM,,,,

SMILES,GI50 [1],TGI [1],GI50 [2],TGI [2],GI50 [3],TGI [3],GI50 [4],TGI [4],TGI [5],GI50 [6],TGI [6],TGI [7],TGI [8],GI50 [5],GI50 [7],GI50 [8],TGI [9],TGI [10],GI50 [11],TGI [11]
CCOC(=O)CCSC1=CC(=O)c2nc3ccccc3c3ccnc1c23,29.8 µM,> 100 µM,26.7 µM,> 100 µM,13.4 µM,50.1 µM,32.8 µM,> 100 µM,32.4 µM,18.3 µM,77.4 µM,91 µM,30.4 µM,16.7 µM,27.5 µM,13.4 µM,,,,
NCCCNc1nc2ccccc2c2c(=O)c3cc(F)cc(Cl)c3sc12,1.72 µM,3.37 µM,2.45 µM,6.58 µM,1.64 µM,3.11 µM,1.73 µM,3.46 µM,3.39 µM,1.8 µM,3.55 µM,3.1 µM,20.3 µM,1.91 µM,1.65 µM,6.5 µM,,,,
NC(=O)c1ncn2c(=O)n(CCCl)nnc12,99.2 µM,447 µM,,223 µM,,221 µM,,496 µM,651 µM,,628 µM,608 µM,324 µM,,,,131 µM,275 µM,,
OCC1OC(n2cnc3c(NCc4ccco4)ncnc32)C(O)C1O (stereo not given),4.43 µM,> 100 µM,0.724 µM,3.48 µM,2.79 µM,32.8 µM,0.675 µM,> 35.7 µM,> 63.7 µM,2.6 µM,36.9 µM,> 100 µM,> 74.1 µM,3.18 µM,4.76 µM,9.36 µM,,,,
O=C1CCc2ccc(O)c(c2)Oc2ccc(cc2)[C@@H]2O[C@@H]2CO1,,> 100 µM,,> 100 µM,,,,,> 100 µM,,> 100 µM,> 100 µM,58.2 µM,,,,67 µM,,,> 100 µM
C=C1C(=O)O[C@H]2[C@H]1CC/C(COC(=O)/C=C\C(=O)NCc1ccc(Cn3c(=O)sn(-c4ccc(Cl)cc4)c3=O)cc1)=C\CC[C@@]1(C)O[C@@H]21,0.713 µM,1.6 µM,0.696 µM,2.52 µM,0.811 µM,1.74 µM,1.25 µM,5.06 µM,1.5 µM,0.871 µM,2.35 µM,1.75 µM,1.52 µM,0.775 µM,0.834 µM,0.825 µM,,,,
CN(C)C/C=C/C(=O)Nc1cc2c(Nc3cccc(Cl)c3F)ncnc2cc1OCCOC(F)F,2.39 µM,12.1 µM,1.71 µM,7.23 µM,2.82 µM,13.5 µM,0.771 µM,7.74 µM,1.3 µM,1.24 µM,12.7 µM,15.1 µM,7.87 µM,< 0.01 µM,0.371 µM,2.46 µM,,,,
NS(=O)(=O)c1cc(C(=O)O)c(Cl)c([N+](=O)[O-])c1Cl,,> 100 µM,,> 100 µM,,> 100 µM,,> 100 µM,> 100 µM,,> 100 µM,> 100 µM,> 100 µM,,,,,,,
CC1(C)CN(CCNc2nccc(-c3c(-c4cccc(O)c4)nc4sccn34)n2)S(=O)(=O)N1,8.78 µM,> 33.2 µM,10.2 µM,30.2 µM,7.07 µM,> 33.2 µM,> 33.2 µM,> 33.2 µM,> 33.2 µM,14.2 µM,> 33.2 µM,> 33.2 µM,12.5 µM,> 22.6 µM,> 33.2 µM,1.29 µM,,,,
CCOC(=O)c1cc2c(n1Cc1cc(OC)cc(OC)c1)-c1oncc1CC2,0.262 µM,> 100 µM,0.0634 µM,1.15 µM,0.139 µM,> 37.8 µM,0.0486 µM,,> 100 µM,0.27 µM,> 100 µM,> 100 µM,20.3 µM,3.58 µM,0.474 µM,0.0827 µM,,,,
Nc1nc(N)c(-c2ccc(Cl)c(Cl)c2)c(CP(Cl)(Cl)(Cl)Br)n1,4.8 µM,> 100 µM,4.07 µM,31.6 µM,1.58 µM,> 100 µM,11.7 µM,> 100 µM,> 100 µM,5.37 µM,> 100 µM,> 100 µM,56.6 µM,29.6 µM,6.96 µM,6.72 µM,,,,
O=C(CC1Sc2ccccc2NC1=O)NNc1ccc(F)cc1 (stereo not given),> 100 µM,> 100 µM,7.9 µM,> 100 µM,30.8 µM,> 100 µM,22.5 µM,> 100 µM,> 100 µM,74 µM,> 100 µM,> 100 µM,> 100 µM,> 100 µM,> 100 µM,46.1 µM,,,,
C[C@@H](Oc1cc(-c2cnn(C3CCNCC3)c2)cnc1N)c1c(Cl)cc(F)cc1Cl,1.93 µM,7.65 µM,0.917 µM,2.95 µM,0.902 µM,5.4 µM,5.81 µM,20.1 µM,11.6 µM,1.14 µM,11.3 µM,10.1 µM,2.89 µM,3.6 µM,2 µM,1.51 µM,,,,
CCc1ccccc1NC(=O)C(=O)C(C#N)c1c(Cl)cccc1Cl (stereo not given),,> 100 µM,,> 100 µM,,,,,> 100 µM,,> 100 µM,,,,,,,> 100 µM,,> 100 µM
CCN(CC)CCCNc1cc(OC)c(OC)c2cccnc12,3.71 µM,21 µM,3.47 µM,6.55 µM,1.47 µM,16.9 µM,15.6 µM,49 µM,50.1 µM,10.5 µM,38.1 µM,51.1 µM,19.9 µM,23 µM,20.6 µM,5.67 µM,,,,
O=C(O)CCSC(=O)Nc1ccccc1,,> 100 µM,,> 100 µM,,> 100 µM,,,> 100 µM,,> 100 µM,> 100 µM,,,,,,> 100 µM,,> 100 µM

# — PubChem BioAssay (NCI)
